What was measured:
Yes = target: T1, Yes (Homo sapiens, UniProt P07947); assay: Kinase inhibition assay (TLC, 33P-ATP); type: biochemical
T1 construct: purchased Millipore Inc (Dundee, UK)
Method: (§1) Kinase inhibition was measured using thin-layer-chromatography (TLC). Briefly, purified kinases (20 nM), the corresponding substrate (500 µM, TSFYGRH for Etk, YIYGSFK for the other kinases), and CTA095 (0–10 µM) were incubated in a kinase reaction (100 mM Hepes, pH 7.4, 10 mM MnCl2, 10 mM MgCl2, 1 mM DTT) for 5 min, and the reaction was started by adding 5 μCi ^33P-labeled ATP. The reaction (10 µl) was incubated at room temperature for 1 h and was stopped by adding 10 μL H3PO4. The radioactivity of the peptide substrate was analyzed using TLC as previously described.
(§2) Having isolated a small molecule that inhibits Etk, the next logical step was to determine its specificity for this enzyme. To accomplish this, purified Etk, Btk, Src and Yes were incubated in a kinase reaction buffer with CTA095 (0–1 μM) in the presence of ^33P-labeled ATP and a peptide (YIYGSFK), previously shown to be an excellent substrate for both BTK and Src family kinases. The kinase activity was measured using TLC technique.

Etk = target: T2, Etk (Homo sapiens, UniProt P51813); assay: Kinase inhibition assay (TLC, 33P-ATP); type: biochemical; settings: for IC50: Etk
T2 construct: purchased Millipore Inc (Dundee, UK)
T2 sequence (P51813 1-675): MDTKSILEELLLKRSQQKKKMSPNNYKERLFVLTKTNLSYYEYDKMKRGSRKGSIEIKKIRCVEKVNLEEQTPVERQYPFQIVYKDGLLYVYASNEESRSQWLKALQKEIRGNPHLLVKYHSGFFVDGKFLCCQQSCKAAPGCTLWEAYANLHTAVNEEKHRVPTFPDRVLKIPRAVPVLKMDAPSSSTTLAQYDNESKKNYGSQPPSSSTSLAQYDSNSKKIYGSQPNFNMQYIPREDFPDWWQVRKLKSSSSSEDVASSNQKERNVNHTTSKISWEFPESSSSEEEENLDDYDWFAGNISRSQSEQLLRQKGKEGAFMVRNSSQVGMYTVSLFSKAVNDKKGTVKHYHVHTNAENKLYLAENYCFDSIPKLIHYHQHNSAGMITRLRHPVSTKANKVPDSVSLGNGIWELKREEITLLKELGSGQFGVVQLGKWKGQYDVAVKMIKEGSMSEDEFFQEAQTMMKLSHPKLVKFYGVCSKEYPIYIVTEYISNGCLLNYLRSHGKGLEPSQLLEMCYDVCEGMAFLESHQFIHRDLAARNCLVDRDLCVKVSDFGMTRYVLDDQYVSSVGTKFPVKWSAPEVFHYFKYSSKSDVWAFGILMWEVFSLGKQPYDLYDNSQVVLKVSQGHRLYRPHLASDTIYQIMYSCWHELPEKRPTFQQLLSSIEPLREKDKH
Method: as §1, §2

Src = target: T3, Src (Homo sapiens, UniProt P12931); assay: Kinase inhibition assay (TLC, 33P-ATP); type: biochemical
T3 construct: purchased Millipore Inc (Dundee, UK)
Method: as §1, §2

[1] = system: PC3 cells stably transfected with GFP-LC3; assay: Autophagy assay (GFP-LC3 puncta, LC3 immunoblot); type: cell-based, human; settings: PC3 GFP-LC3, 5 μM, 24 h
Method: PC3 cells were stably transfected with GFP-LC3 [16]. Cells were grown in a 6-well plate to 50% confluence and treated with 5 μM CTA095 for 24 h. Autophagy was visualized by GFP-LC3 “puncta” and immunoblot of Endogenous LC3 isoforms.
Figure 6 Induction of autophagy in PC3 cells by CTA095. Cells were grown in 6-well plate to 50% confluence and treated with CTA095. Autophagy was visualized by GFP-LC3 “puncta” (A) and immunoblot of Endogenous LC3 isoforms (B). All experiments were carried out 24 h after treatment.

HUVEC cells = assay: HUVEC cell tube formation assay; type: cell-based; settings: 5 μM, 6 h
Method: HUVEC cells were seeded on mitrogel and treated with CTA095 (0 and 5 μM) for 6 h. Vascular tube formation was visualized using a microscope.
Figure 8 Inhibition of tube formation and cell migration by CTA095. Inhibition of vascular tube formation of HUVEC endothelial cells (A) and inhibition of migration (wound healing) of PC3 human prostate cancer cells (B) by CTA095. (A) HUVEC cells were seed on mitrogel and treated with CTA095 (0 and 5 μM) for 6 h. Vascular tube formation was visualized using microscope. (B) PC3 cells were grown in 6-well plate to 60% confluency. Then wounds were made and treated with CTA095 (0 and 5 μM). Cell migration (wound healing) was visualized under microscope at the indicated times.

293 cells (Etk negative) = assay: Annexin V-FITC apoptosis in 293 cells; type: cell-based; settings: 24 h
Method: Supplementary file pone.0070910.s005.tif: Figure S5 Induction of apoptosis of 293 cells following treatment with CTA095. 293 cells were seeded at 10^6 cells/ml (2 ml) in a 6-well plate overnight and then treated with CTA095 at the indicated concentrations for 24 h. Apoptosis was analyzed using Annexin-V FITC apoptosis detection kit. Columns, mean; bars, standard deviation, n = 3. (TIF) Click here for additional data file.

[2] = system: Src phosphorylation in PC3-Etk cells; assay: Western blot of Src phosphorylation in intact cells; type: cell-based, human; settings: 5 μM and 10 μM, 24 h
Method: Western blotting was performed as described previously. Proteins were detected using the following antibodies: β-actin (Sigma-Aldrich, Saint Louis, MO), Etk (Santa Cruz Inc., Santa Cruz, CA), pEtk; Src, pSrc; Stat3, pStat3. For phospho-Etk, cells were pre-treated with 100 μM pervanadate for 15 min before harvest.
Figure 4 Inhibition of cell signaling in PC3 cells following treatment with CTA095. Cells were grown in 10 mm plate to 50% confluence and treated with CTA095. Cells were harvested after 24 h. pEtk, Etk, pSrc, Src, pStat3, Stat3, pAkt and Akt levels were measured using the corresponding antibodies by Western blot. One of three similar experiments depicted.

T3 sequence (P12931 whole entry): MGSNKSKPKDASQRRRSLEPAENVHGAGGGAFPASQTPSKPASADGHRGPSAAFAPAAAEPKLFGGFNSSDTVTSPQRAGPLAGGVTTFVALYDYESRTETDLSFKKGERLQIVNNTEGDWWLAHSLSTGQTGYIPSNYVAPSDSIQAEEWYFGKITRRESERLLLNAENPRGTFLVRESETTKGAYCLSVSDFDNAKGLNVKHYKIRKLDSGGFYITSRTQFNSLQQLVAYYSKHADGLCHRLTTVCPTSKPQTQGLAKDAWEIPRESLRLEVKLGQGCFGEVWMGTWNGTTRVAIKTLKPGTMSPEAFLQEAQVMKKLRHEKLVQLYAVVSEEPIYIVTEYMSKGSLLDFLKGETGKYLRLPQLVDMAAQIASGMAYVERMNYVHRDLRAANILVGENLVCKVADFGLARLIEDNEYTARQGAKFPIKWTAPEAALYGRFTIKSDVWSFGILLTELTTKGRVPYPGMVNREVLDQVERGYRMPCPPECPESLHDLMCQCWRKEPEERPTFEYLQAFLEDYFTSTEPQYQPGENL
T1 sequence (P07947 whole entry): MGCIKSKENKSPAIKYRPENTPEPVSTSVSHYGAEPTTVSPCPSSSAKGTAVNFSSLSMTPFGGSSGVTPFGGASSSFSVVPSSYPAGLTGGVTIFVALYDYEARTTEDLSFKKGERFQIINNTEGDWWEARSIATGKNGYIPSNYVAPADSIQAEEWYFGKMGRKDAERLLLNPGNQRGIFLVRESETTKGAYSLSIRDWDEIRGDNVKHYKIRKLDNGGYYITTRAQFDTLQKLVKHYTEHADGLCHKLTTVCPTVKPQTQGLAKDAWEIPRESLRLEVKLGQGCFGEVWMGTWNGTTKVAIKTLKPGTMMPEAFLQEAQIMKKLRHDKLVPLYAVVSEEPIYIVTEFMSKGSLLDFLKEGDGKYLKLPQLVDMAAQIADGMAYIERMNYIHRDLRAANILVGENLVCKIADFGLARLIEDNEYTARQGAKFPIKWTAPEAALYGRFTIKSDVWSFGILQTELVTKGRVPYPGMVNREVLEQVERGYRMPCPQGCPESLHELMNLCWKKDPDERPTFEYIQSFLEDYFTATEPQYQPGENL

## O=c1[nH]c2cc3nc(-c4ccc5oc6ccccc6c5c4)n(CCCN4CCCCC4)c3cc2nc1-c1ccccc1 [CTA095, 2-(dibenzo[b,d]furan-2-yl)-7-phenyl-1-(3-(piperidin-1-yl)propyl)-1H-imidazo[4,5-g]quinoxalin-6(5H)-one]
Yes
  IC50: > 10 µM
Etk; TLC assay
  IC50: 0.06 µM
Etk; TLC, peptide YIYGSFK, 33P-ATP
  IC50: ~0.06 µM
Etk; compound 1 μM, Etk 20 nM, compared with other CT compounds
  Etk inhibition: significant Etk inhibition
Src; TLC assay
  IC50: 0.12 µM
Src; TLC, peptide YIYGSFK, 33P-ATP
  IC50: ~0.12 µM
[1]
  autophagy (GFP-LC3 puncta): extensive distinct “puncta” autophagosome morphology
HUVEC cells
  tube formation of HUVEC cells: disrupted
293 cells (Etk negative)
  induction of apoptosis: resistant to induce apoptosis
[2]
  Src phosphorylation: significantly inhibited
